Test results: US20190125745A1, “TREATMENT AND DIAGNOSIS OF CANCER” (Rgenix, Inc., priority 2014, published 2019)
Where a name gives a salt, the structure may show the parent alone.

Assays:
LXRβ = biological target: T1, LXRβ (Homo sapiens, UniProt P55055); assay: ligand sensing assay (LiSA), LXRβ; type: biochemical; details: hydrochloride
T1 sequence (P55055 1-460): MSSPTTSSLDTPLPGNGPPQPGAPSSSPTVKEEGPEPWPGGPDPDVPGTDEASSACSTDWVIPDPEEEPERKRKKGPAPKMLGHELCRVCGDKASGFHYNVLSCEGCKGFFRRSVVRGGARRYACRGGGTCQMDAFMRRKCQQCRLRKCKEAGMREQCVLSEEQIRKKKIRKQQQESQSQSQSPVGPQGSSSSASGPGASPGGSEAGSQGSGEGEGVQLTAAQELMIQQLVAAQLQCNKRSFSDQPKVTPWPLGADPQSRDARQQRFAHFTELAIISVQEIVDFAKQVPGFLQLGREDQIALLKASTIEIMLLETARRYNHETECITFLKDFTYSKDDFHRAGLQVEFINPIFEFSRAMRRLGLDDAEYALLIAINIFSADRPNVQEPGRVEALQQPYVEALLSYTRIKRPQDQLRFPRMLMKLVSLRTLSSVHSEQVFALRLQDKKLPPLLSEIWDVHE
Source text: As used herein, reference to the activity of an LXR agonist at LXRα and LXRβ refer to the activity as measured using the ligand sensing assay (LiSA) described in Spencer et al. Journal of Medicinal Chemistry 2001, 44, 886-897, incorporated herein by reference. […] For example, the methods of the invention can be performed using an LXRβ agonist having activity for LXRβ that is at least 3-fold greater than the activity of the agonist for LXRα, or having activity for LXRβ that is at least 10-fold greater than the activity of the agonist for LXRα, or having activity for LXRβ that is at least 100-fold greater than the activity of said agonist for LXRα, or having activity for LXRβ that is at least within 3-fold of the activity of the agonist for LXRα. The term “greater activity” in the LiSA assay refers to a lower EC50.

[1] = system: B16F10 parental and DTIC-resistant cells; assay: Tumor growth by DTIC-sensitive and DTIC-resistant B16F10 cells; type: in vivo, mouse; details: chow 100 mg/kg
Procedure: Dacarbazine-resistant B16F10 mouse melanoma cells were generated by continuously culturing the cells in the presence of DTIC (D2390, Sigma-Aldrich, St. Louis, Mo.). First, the cells were treated with 500 μg/mL DTIC for one week. Following this initial DTIC treatment, the remaining (˜10%) viable cells were allowed to recover for one week, after which 750 μg/mL of DTIC was added to the cell media for 5 days. Subsequent to this high-dose treatment, the cells were allowed to recover in the presence of low-dose DTIC (100 μg/mL) for one week. The cells were then continuously cultured in cell media containing 200 μg/mL DTIC for at least one month prior to grafting the cells into mice. DTIC was added to fresh cancer cell media every 3 days. For tumor growth experiments, 5×10^4 B16F10 parental and DTIC-resistant cells were subcutaneously injected into the lower flank of 7-week-old C57BL/6 mice.

[2] = system: B16F10 mouse melanoma cells; assay: B16F10 tumor growth and metastasis with LXR or ApoE knockdown or knockout; type: in vivo
Procedure: FIG. 12. Therapeutic Delivery of LXR Agonists Upregulates Melanoma-Derived and Systemic ApoE Expression. (A-B) ApoE expression levels, quantified by qRT-PCR, in subcutaneous tumors formed by B16F10 mouse melanoma cells injected into C57BL/6 mice. After 5-mm^3 tumor formation, mice were fed a control diet or diet containing GW3965 (20 mg/kg) (A) or T0901317 (20 mg/kg) (B) for 7 days. n=3-4. (C-E) ApoEtranscript expression in primary tumors (C), lung metastases (D), and brain metastases (E) formed by MeWo human melanoma cells grafted onto NOD Scid mice that were administered control chow or chow supplemented with GW3965 (20 mg/kg). ApoE levels were assessed on day 35 (C), day 153 (D), and day 34 (E) post-injection of the cancer cells. n=3-5. (F) Relative expression levels of LXRα, LXRβ, and ApoE were determined by qRT-PCR in B16F10 mouse melanoma cells expressing a control hairpin or an shRNA targeting mouse LXRα (sh_mLXRα), mouse LXRβ (sh_mLXRβ), or mouse ApoE (sh_mApoE). (G-H) ApoE (G) and ABCA1(H) mRNA levels, measured by qRT-PCR, in B16F10 cells expressing a control shRNA or shRNAs targeting mouse LXRβ or mouse ApoE. The cells were treated with DMSO or GW3965 at 5 μM for 48 hours. n=3. (I) ABCA1 mRNA levels, measured by qRT-PCR, in systemic white blood cells extracted from LXRα −/− or LXRβ −/− mice fed a control diet or a GW3965-supplemented diet (20 mg/kg) for 10 days. n=3-4. (J) Relative expression of ApoE mRNA, expressed as the frequency of SAGE tags, in mouse skin and lung tissues was determined using the public mSAGE Expression Matrix database available through the NCI-funded Cancer Genome Anatomy Project (CGAP). (K) Relative expression of ApoE mRNA, determined by qRT-PCR, in MeWo melanoma cells dissociated from lung metastatic nodules (LM2) or primary tumors relative to control unselected MeWo parental cells. n=3.
FIG. 13. LXRβ Agonism Suppresses Melanoma Tumor Growth and Metastasis by Inducing Melanoma-Derived and Systemic ApoE Expression. […] (B) Quantification of ApoE protein expression based on western blots shown in (A). […] Representative tumor images extracted at the end point are shown in the right panel. n=6-18. (E) ApoE transcript levels, quantified by qRT-PCR, in systemic white blood cells extracted from LXRα −/− or LXRβ −/− mice fed a control diet or a GW3965-supplemented diet (20 mg/kg) for 10 days. n=3-5. (F) Subcutaneous tumor growth by 5×10^4 B16F10 control cells or B16F10 cells expressing an shRNA targeting mouse ApoE (sh_mApoE) in C57BL/6-WT or ApoE−/− mice. […] Representative images of tumors extracted at the final day of measurement (d12) are shown on the right. n=8-18. (G) Lung colonization by 5×10^4 B16F10 cells transduced with a control shRNA or sh_mApoE and intravenously injected into C57BL/6-WT or ApoE−/− mice. […] Lung metastasis was quantified on d22 by bioluminescence imaging. Representative lungs extracted at the end point (d22) are shown in the right panel. n=5-10. (H) ApoE protein expression, determined by blinded immunohistochemical analysis, in non-metastatic (n=39) and metastatic (n=34) primary melanoma skin lesion samples obtained from patients at MSKCC. The fraction of ApoE-positively staining cell area was quantified as a percentage of total tumor area.

[3] = in vivo; cited from earlier work

## O=C(O)Cc1cccc(OCCCN(Cc2cccc(C(F)(F)F)c2Cl)CC(c2ccccc2)c2ccccc2)c1 [GW3965 108, 3-[3-[N-(2-Chloro-3-trifluoromethylbenzyl)-(2,2-diphenylethyl)amino]propyloxy] phenylacetic acid hydrochloride]
LXRβ
  greater activity for LXRβ compared to LXRα: 6 fold
LXRβ; row
  greater activity for LXRβ compared to LXRα: approximately 6 fold
[1]
  suppression of tumor growth by the DTIC-resistant B16F10 melanoma clone: more than 70%
[2]; ApoE−/− mice, diet 20 mg/kg
  metastasis suppression upon genetic inactivation of ApoE: only partially prevented
  suppressing tumor growth in mice genetically inactivated for ApoE: completely ineffective
[2]; B16F10 cells, 5 μM, 48 hours
  induction of ApoE expression upon knockdown of mouse melanoma-cell LXRβ: abrogated
[2]; diet 20 mg/kg
  inhibition of metastasis with both melanoma-cell ApoE knockdown and genetic inactivation of systemic ApoE: completely blocked
[2]; diet 20 mg/kg, 7 days
  suppression of tumor growth with melanoma-cell LXRβ knockdown: unable to prevent
  tumor growth inhibition upon depletion of melanoma-cell ApoE: did not prevent
[2]; lung colonization, diet 20 mg/kg
  metastasis-suppressive effect upon knockdown of melanoma-cell ApoE: partially prevented
[2]; white blood cells, diet 20 mg/kg, 10 days
  upregulation of systemic ApoE expression in LXR null mice: abrogated in LXRβ −/−, but not in LXRα −/− mice
[3]
  crossing of the blood brain barrier: can efficiently cross the blood brain barrier
